The target of one series is T1, RPMI 8866 cells (Homo sapiens, UniProt P13612+P26010).
T1 sequence (P13612 34-1032): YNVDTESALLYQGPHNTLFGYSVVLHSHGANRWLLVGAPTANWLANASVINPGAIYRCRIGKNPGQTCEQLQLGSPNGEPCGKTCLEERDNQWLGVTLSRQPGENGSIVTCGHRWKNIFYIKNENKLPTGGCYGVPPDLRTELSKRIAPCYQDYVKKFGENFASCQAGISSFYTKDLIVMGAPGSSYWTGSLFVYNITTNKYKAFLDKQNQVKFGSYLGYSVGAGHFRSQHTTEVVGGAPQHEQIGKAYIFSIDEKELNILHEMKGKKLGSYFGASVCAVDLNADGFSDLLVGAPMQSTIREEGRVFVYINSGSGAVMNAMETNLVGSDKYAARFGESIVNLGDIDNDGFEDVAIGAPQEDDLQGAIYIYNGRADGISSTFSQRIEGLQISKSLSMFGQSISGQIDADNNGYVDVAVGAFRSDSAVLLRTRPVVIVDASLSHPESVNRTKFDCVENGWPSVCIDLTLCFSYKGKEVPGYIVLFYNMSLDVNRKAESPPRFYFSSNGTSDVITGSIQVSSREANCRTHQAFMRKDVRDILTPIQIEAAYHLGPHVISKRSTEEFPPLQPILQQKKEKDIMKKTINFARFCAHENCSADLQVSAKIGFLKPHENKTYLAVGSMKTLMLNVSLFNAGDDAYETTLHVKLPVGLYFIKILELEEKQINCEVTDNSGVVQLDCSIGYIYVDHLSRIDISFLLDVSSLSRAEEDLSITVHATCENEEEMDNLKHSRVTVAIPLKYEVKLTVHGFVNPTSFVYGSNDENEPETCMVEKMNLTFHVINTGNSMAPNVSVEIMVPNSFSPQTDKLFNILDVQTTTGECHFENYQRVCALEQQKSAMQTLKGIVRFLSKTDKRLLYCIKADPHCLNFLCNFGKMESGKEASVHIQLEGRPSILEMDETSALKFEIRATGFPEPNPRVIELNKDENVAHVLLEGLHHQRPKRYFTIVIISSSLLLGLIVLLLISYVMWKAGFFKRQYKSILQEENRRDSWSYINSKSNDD
T1 sequence (P26010 20-798): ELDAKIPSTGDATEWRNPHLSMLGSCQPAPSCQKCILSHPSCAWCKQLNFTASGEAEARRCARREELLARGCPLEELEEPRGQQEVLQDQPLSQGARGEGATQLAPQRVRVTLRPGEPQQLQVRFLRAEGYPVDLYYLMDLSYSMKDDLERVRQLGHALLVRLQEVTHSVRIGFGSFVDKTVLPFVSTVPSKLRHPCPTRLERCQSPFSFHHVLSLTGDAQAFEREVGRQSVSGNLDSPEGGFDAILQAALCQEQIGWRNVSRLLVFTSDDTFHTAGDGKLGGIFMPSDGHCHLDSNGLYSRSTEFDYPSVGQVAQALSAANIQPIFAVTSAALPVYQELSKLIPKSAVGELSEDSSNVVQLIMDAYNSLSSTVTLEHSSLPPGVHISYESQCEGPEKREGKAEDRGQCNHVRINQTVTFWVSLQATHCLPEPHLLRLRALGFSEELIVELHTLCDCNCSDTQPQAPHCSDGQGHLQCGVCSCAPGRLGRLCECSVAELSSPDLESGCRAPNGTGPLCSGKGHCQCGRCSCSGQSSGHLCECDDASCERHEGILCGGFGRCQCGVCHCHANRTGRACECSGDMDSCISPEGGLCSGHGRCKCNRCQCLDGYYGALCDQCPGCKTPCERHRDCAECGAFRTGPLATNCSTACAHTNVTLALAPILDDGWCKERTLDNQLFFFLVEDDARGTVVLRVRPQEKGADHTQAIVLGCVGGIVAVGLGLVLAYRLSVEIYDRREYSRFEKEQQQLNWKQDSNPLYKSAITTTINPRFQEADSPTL
Description: α4β7-MAdCAM Cell Adhesion Assay. The class given is cell-based. Conditions: thioether peptide dimers, Table 7; read-out: Cell-Adhesion A4B7. In outline: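 RPMI 8866 cells (200,000/well) in DMEM with 1 mM MnCl2 and 0.1% BSA were allowed to adhere 30-45 min at 37° C to plates coated with rh MAdCAM-1/Fc (200 ng/well) in presence of serially diluted peptide. After washing, bound cells quantified by MTT, absorbance 570 nm, cell-free background subtracted.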

A short description of series [1]: Simulated Intestinal Fluid (SIF) Stability Assay. It is filed as in vitro ADME. Conditions: pig, 37° C., dimers, Table 7; for half-life: porcine pancreatin; for half-life at 22 μM: simulated intestinal fluid (SIF) with 1% porcine pancreatin, pH 6.5, porcine pancreatin. The procedure:
Simulated Intestinal Fluid (SIF) Stability Assay
Studies were carried out in simulated intestinal fluid (SIF) to evaluate intestinal stability of the peptide molecules of the instant invention. To prepare the SIF reagent, blank FASSIF was prepared by dissolving 0.348 g NaOH, 3.954 g sodium phosphate monobasic monohydrate and 6.186 g NaCl in a final volume of 1 liter water (final pH=6.5). To this solution, 24 g porcine pancreatin (Sigma catalog P7545) was added and stirred for 30 minutes (final pancreatin concentration is 2.4%). The solution was filtered through a cheese cloth and a No. 1 Whatman filter, and 10 ml aliquots were stored at −70° C. To run the reaction, a 10 ml aliquot was thawed at 37° C., and 125 μl aliquots were removed and mixed with an equal volume of blank FASSIF. The peptide stock solution (10 mM in 100% DMSO) was diluted 75-fold in blank FASSIF. A 50 μl aliquot of the diluted peptide was combined with 125 μl pancreatin (2.4%) and 125 μl blank FASSIF to yield final concentrations of 1% pancreatin and 22 μM peptide. The reactions were incubated at 37° C., and at various time points 50 μl aliquots were removed and added to 200 μl of quench solution containing 50% acetonitrile, 50% methanol, 5% formic acid, and 1 μg/ml internal standard. The quenched samples were centrifuged at 10,000 rpm for 10 minutes, and the supernatants were analyzed by LCMS/MS. The percent remaining at each time point was calculated based on the peak area response ratio of test to compound to internal standard. Half-lives were calculated by fitting to a first-order exponential decay equation using GraphPad. A small sampling of the results of these studies is provided and discussed herein and in the accompanying figures.

*1 amine or outer side, *2 acyl side, *3 side chain or, on linkers, in order; H or OH if unused. Where a SMILES comes first, the peptide text is derived from it. Bridges are numbered along the chain shown (N, C = ends). Roman numbers before positions name the chains, in order. [ ]: non-standard residue; d: D form. 2Nal = N[C@@H](Cc1ccc2ccccc2c1)C(=O)O; Diglycolyl = O=C(COCC(=O)[*:2])[*:1]; NMeR = CN[C@@H](CCCNC(=N)N)C(=O)O; Tic = O=C(O)[C@@H]1Cc2ccccc2CN1; X1 = O=C(c1ccccc1C[*:2])[*:1]; Pen = CC(C)(S)[C@H](N)C(=O)O

`CC(C)C[C@@H]1NC(=O)[C@H]([C@@H](C)O)NC(=O)[C@H](CC(=O)O)NC(=O)[C@H](CO)NC(=O)[C@H](CCCNC(=N)N)N(C)C(=O)CCSCC[C@@H](C(=O)N[C@@H](Cc2c[nH]c3ccccc23)C(=O)N[C@H](CCCCNC(=O)COCC(=O)NCCCC[C@@H](NC(=O)[C@H](Cc2c[nH]c3ccccc23)NC(=O)[C@@H]2CCSCCC(=O)N(C)[C@@H](CCCNC(=N)N)C(=O)N[C@@H](CO)C(=O)N[C@@H](CC(=O)O)C(=O)N[C@@H]([C@@H](C)O)C(=O)N[C@@H](CC(C)C)C(=O)N2)C(N)=O)C(N)=O)NC1=O` [compound 149]: the IC50 at RPMI 8866 cells was above 1000 nM. For the same molecule, in series [1], the half-life is below 20 min.
In the case of `CC(C)C[C@@H]1NC(=O)[C@H]([C@@H](C)O)NC(=O)[C@H](CC(=O)O)NC(=O)[C@H](CO)NC(=O)[C@H](CCCNC(=N)N)N(C)C(=O)c2ccccc2CSC(C)(C)[C@@H](C(=O)N[C@H](Cc2ccccc2)C(=O)N[C@@H](Cc2ccc3ccccc3c2)C(=O)N[C@H](CCCCNC(=O)COCC(=O)NCCCC[C@@H](NC(=O)[C@H](Cc2ccc3ccccc3c2)NC(=O)[C@@H](Cc2ccccc2)NC(=O)[C@H]2NC(=O)[C@H](CC(C)C)NC(=O)[C@H]([C@@H](C)O)NC(=O)[C@H](CC(=O)O)NC(=O)[C@H](CO)NC(=O)[C@H](CCCNC(=N)N)N(C)C(=O)c3ccccc3CSC2(C)C)C(N)=O)C(N)=O)NC1=O` [compound 162] (I: [NMeR]SDTL[Pen][dF][2Nal][dK]-NH2 / II: [NMeR]SDTL[Pen][dF][2Nal][dK]-NH2; linker I:9-II:9 via Diglycolyl; linker I:N-I:6, II:N-II:6 via X1), the IC50 on RPMI 8866 cells fell in the range of 100 to 1000 nM. The molecule also registered a half-life at 22 μM in series [1] above 180 min.
For `COC(=O)CC[C@H](NC(=O)[C@@H]1Cc2ccccc2CN1C(=O)[C@@H]1CSCc2ccccc2C(=O)N(C)[C@@H](CCCNC(=N)N)C(=O)N[C@@H](CO)C(=O)N[C@@H](CC(=O)O)C(=O)N[C@@H]([C@@H](C)O)C(=O)N[C@@H](CC(C)C)C(=O)N1)C(=O)N[C@H](CCCCN)C(N)=O` [compound 211] (HELM PEPTIDE1{[meR].S.D.T.L.C.[Tic].E.[dK].[am]}|CHEM1{[CO[*:1]]}|CHEM2{[O=C(c1ccccc1C[*:2])[*:1]]}$PEPTIDE1,CHEM1,8:R3-1:R1|PEPTIDE1,CHEM2,1:R1-1:R1|PEPTIDE1,CHEM2,6:R3-1:R2$$$V2.0), the IC50 at RPMI 8866 cells is below 25 nM. The molecule also gave a half-life at 22 μM in series [1] of 7 min.
Taken in the same sequence, the figures for `CC(C)C[C@@H]1NC(=O)[C@H]([C@@H](C)O)NC(=O)[C@H](CC(=O)O)NC(=O)[C@H](CO)NC(=O)[C@H](CCCNC(=N)N)N(C)C(=O)c2ccccc2CSC[C@@H](C(=O)N2Cc3ccccc3C[C@H]2C(=O)N[C@H](CCCCN)C(N)=O)NC1=O` [compound 216] (HELM PEPTIDE1{[meR].S.D.T.L.C.[Tic].[dK].[am]}|CHEM1{[O=C(c1ccccc1C[*:2])[*:1]]}$PEPTIDE1,CHEM1,1:R1-1:R1|PEPTIDE1,CHEM1,6:R3-1:R2$$$V2.0) were below 25 nM and above 180 min.
Take `COC(=O)CC[C@H](NC(=O)[C@@H]1Cc2ccccc2CN1C(=O)[C@@H]1CSCc2ccccc2C(=O)N(C)[C@@H](CCCNC(=N)N)C(=O)N[C@@H](CO)C(=O)N[C@@H](CC(=O)O)C(=O)N[C@@H]([C@@H](C)O)C(=O)N[C@@H](CC(C)C)C(=O)N1)C(=O)N[C@H](CCCCNC(=O)COCC(=O)NCCCC[C@@H](NC(=O)[C@H](CCC(=O)OC)NC(=O)[C@@H]1Cc2ccccc2CN1C(=O)[C@@H]1CSCc2ccccc2C(=O)N(C)[C@@H](CCCNC(=N)N)C(=O)N[C@@H](CO)C(=O)N[C@@H](CC(=O)O)C(=O)N[C@@H]([C@@H](C)O)C(=O)N[C@@H](CC(C)C)C(=O)N1)C(=O)O)C(=O)O` [compound 220] (I: [NMeR]SDTLC[Tic]E(OMe)[dK]-OH / II: [NMeR]SDTLC[Tic]E(OMe)[dK]-OH; linker I:9-II:9 via Diglycolyl; linker I:N-I:6, II:N-II:6 via X1): the IC50 at RPMI 8866 cells is below 25 nM. The molecule also yielded a half-life in series [1] above 180 min.

For orientation: half-life means the time in which the quantity being followed falls by half. Read a high half-life as slow decline.

(Values after patent US20260217767A1, “NOVEL A4B7 THIOETHER PEPTIDE DIMER ANTAGONISTS” (Protagonist Therapeutics, Inc., priority 2014, published 2026).)
